# ChEMBL document CHEMBL3272133, “1-[4-(4-Chlorophenyl)-2-(2,6-dichlorophenylthio)-n-butyl]-1H-imidazole nitrate, a new potent antifungal agent” (J Med Chem, 1978)
# Active and inactive are the calls of the source. The calls are words filed in the database; no cut-off is given here.
# What was measured:
# Candida albicans [1] = experiment: Antifungal activity against mixed infection of Candida albicans infected in mouse assessed as noninfected animals at 2% commercial cream formulation administered vaginally bid for 4 days measured 6 hrs post last dose relative to placebo; type: functional
# Candida albicans [2] = experiment: Antifungal activity against mixed infection of Candida albicans infected in mouse assessed as noninfected animals at 2% commercial cream formulation administered vaginally bid for 4 days measured on day 7 relative to placebo; type: functional
# Candida albicans [3] = experiment: Antifungal activity against mixed infection of Candida albicans infected in mouse assessed as noninfected animals at 2% formulation administered vaginally bid for 4 days measured 6 hrs post last dose relative to placebo; type: functional
# Candida albicans [4] = experiment: Antifungal activity against mixed infection of Candida albicans infected in mouse assessed as noninfected animals at 2% formulation administered vaginally bid for 4 days measured on day 7 relative to placebo; type: functional
# Candida albicans [5] = experiment: Antifungal activity against mixed infection of Candida albicans infected in mouse assessed as noninfected animals at 1% formulation administered vaginally bid for 4 days measured 6 hrs post last dose relative to placebo; type: functional
# Candida albicans [6] = experiment: Antifungal activity against mixed infection of Candida albicans infected in mouse assessed as noninfected animals at 1% formulation administered vaginally bid for 4 days measured on day 7 relative to placebo; type: functional
# Candida albicans [7] = experiment: Antifungal activity against mixed infection of Candida albicans infected in mouse assessed as noninfected animals at 0.5% formulation administered vaginally bid for 4 days measured 6 hrs post last dose relative to placebo; type: functional
# Candida albicans [8] = experiment: Antifungal activity against mixed infection of Candida albicans infected in mouse assessed as noninfected animals at 0.5% formulation administered vaginally bid for 4 days measured on day 7 relative to placebo; type: functional
# Candida albicans [9] = experiment: Antifungal activity against mixed infection of Candida albicans infected in mouse assessed as noninfected animals at 0.2% formulation administered vaginally bid for 4 days measured 6 hrs post last dose relative to placebo; type: functional
# Candida albicans [10] = experiment: Antifungal activity against mixed infection of Candida albicans infected in mouse assessed as noninfected animals at 0.2% formulation administered vaginally bid for 4 days measured on day 7 relative to placebo; type: functional
# [11] = tested on: Trichophyton mentagrophytes; experiment: Antifungal activity against Trichophyton mentagrophytes infected in guinea pig assessed as noninfected animals at 0.5% formulation in steryl alcohol, cetyl alcohol, Span 60, Tween 60, propylene glycol, mineral oil, and water administered qd for 5 days measured on day 4; type: functional
# [12] = tested on: Trichophyton mentagrophytes; experiment: Antifungal activity against Trichophyton mentagrophytes infected in guinea pig assessed as noninfected animals at 0.5% formulation in steryl alcohol, cetyl alcohol, Span 60, Tween 60, propylene glycol, mineral oil, and water administered qd for 5 days measured on day 7; type: functional
# [13] = tested on: Trichophyton mentagrophytes; experiment: Antifungal activity against Trichophyton mentagrophytes infected in guinea pig assessed as noninfected animals at 0.5% formulation in steryl alcohol, cetyl alcohol, Span 60, Tween 60, propylene glycol, mineral oil, and water administered qd for 5 days measured on day 14; type: functional
# [14] = tested on: Trichophyton mentagrophytes; experiment: Antifungal activity against Trichophyton mentagrophytes assessed as growth inhibition by agar dilution method; type: functional
# Trichophyton rubrum = experiment: Antifungal activity against Trichophyton rubrum assessed as growth inhibition by agar dilution method; type: functional
# Trichophyton tonsurans = experiment: Antifungal activity against Trichophyton tonsurans assessed as growth inhibition by agar dilution method; type: functional
# [15] = Antifungal activity against Trichophyton concentricum assessed as growth inhibition by agar dilution method; type: functional
# Nannizzia gypsea = experiment: Antifungal activity against Microsporum gypseum assessed as growth inhibition by agar dilution method; type: functional
# Microsporum canis = experiment: Antifungal activity against Microsporum canis assessed as growth inhibition by agar dilution method; type: functional
# Epidermophyton floccosum = experiment: Antifungal activity against Epidermophyton floccosum assessed as growth inhibition by agar dilution method; type: functional
# Candida albicans [16] = experiment: Antifungal activity against Candida albicans ATCC 10231 assessed as growth inhibition by broth dilution method; type: functional
# Candida albicans [17] = experiment: Antifungal activity against Candida albicans ATCC 14053 assessed as growth inhibition by broth dilution method; type: functional
# Cryptococcus neoformans = experiment: Antifungal activity against Cryptococcus neoformans assessed as growth inhibition by broth dilution method; type: functional
# Staphylococcus aureus [18] = experiment: Antibacterial activity against Staphylococcus aureus No. 6538 P assessed as growth inhibition by broth microdilution method; type: functional
# Staphylococcus aureus [19] = experiment: Antibacterial activity against Staphylococcus aureus No. 14154 assessed as growth inhibition by broth microdilution method; type: functional
# Enterococcus faecalis = experiment: Antibacterial activity against Streptococcus faecalis No. 8043-2 assessed as growth inhibition by broth microdilution method; type: functional
# Streptococcus pyogenes = experiment: Antibacterial activity against Streptococcus pyogenes No. 8668 assessed as growth inhibition by broth microdilution method; type: functional
# Candida albicans [20] = experiment: Antifungal activity against Candida albicans infected in mouse assessed as noninfected animals at 2% formulation in modified PEG 400 solution administered vaginally bid for 4 days measured on day 7 relative to placebo; type: functional, organism-based
# Candida albicans [21] = experiment: Antifungal activity against Candida albicans infected in mouse assessed as noninfected animals at 4% formulation in neat PEG 400 solution administered vaginally bid for 4 days measured 6 hrs post last dose relative to placebo; type: functional
# Candida albicans [22] = experiment: Antifungal activity against Candida albicans infected in mouse assessed as noninfected animals at 4% formulation in neat PEG 400 solution administered vaginally bid for 4 days measured on day 7 relative to placebo; type: functional
# Candida albicans [23] = experiment: Antifungal activity against Candida albicans infected in mouse assessed as noninfected animals at 2% formulation in neat PEG 400 solution administered vaginally bid for 4 days measured 6 hrs post last dose relative to placebo; type: functional
# Candida albicans [24] = experiment: Antifungal activity against Candida albicans infected in mouse assessed as noninfected animals at 2% formulation in neat PEG 400 solution administered vaginally bid for 4 days measured on day 7 relative to placebo; type: functional
# Candida albicans [25] = experiment: Antifungal activity against Candida albicans infected in mouse assessed as noninfected animals at 1% formulation in neat PEG 400 solution administered vaginally bid for 4 days measured 6 hrs post last dose relative to placebo; type: functional
# Candida albicans [26] = experiment: Antifungal activity against Candida albicans infected in mouse assessed as noninfected animals at 1% formulation in neat PEG 400 solution administered vaginally bid for 4 days measured on day 7 relative to placebo; type: functional
# Candida albicans [27] = experiment: Antifungal activity against Candida albicans infected in mouse assessed as noninfected animals at 0.5% formulation in neat PEG 400 solution administered vaginally bid for 4 days measured 6 hrs post last dose relative to placebo; type: functional
# Candida albicans [28] = experiment: Antifungal activity against Candida albicans infected in mouse assessed as noninfected animals at 0.5% formulation in neat PEG 400 solution administered vaginally bid for 4 days measured on day 7 relative to placebo; type: functional
# Candida albicans [29] = experiment: Antifungal activity against Candida albicans infected in mouse assessed as noninfected animals at 100000 U/g administered vaginally bid for 4 days measured on day 7 relative to placebo; type: functional, organism-based
# Candida albicans [30] = experiment: Antifungal activity against Candida albicans infected in mouse assessed as noninfected animals at 100000 U/g administered vaginally bid for 4 days measured 6 hrs post last dose relative to placebo; type: functional, organism-based
compound,measurement,setting,value
Clc1ccc(COC(Cn2ccnc2)c2ccc(Cl)cc2Cl)c(Cl)c1 (stereo not drawn) [MICONAZOLE],Activity,Candida albicans [1],33%
same,Activity,Candida albicans [2],25%
same,Activity,Candida albicans [3],10%
same,Activity,Candida albicans [4],15%
same,Activity,Candida albicans [5],20%
same,Activity,Candida albicans [6],25%
same,Activity,Candida albicans [7],20%
same,Activity,Candida albicans [8],11%
same,Activity,Candida albicans [9],15%
same,Activity,Candida albicans [10],20%
same,Activity,[11],70%
same,Activity,[12],80%
same,Activity,[13],10%
same,GI,[14],0.5 µg/mL
same,GI,Trichophyton rubrum,0.5 µg/mL
same,GI,Trichophyton tonsurans,0.5 µg/mL
same,GI,[15],0.5 µg/mL
same,GI,Nannizzia gypsea,0.05 µg/mL
same,GI,Microsporum canis,0.5 µg/mL
same,GI,Epidermophyton floccosum,5 µg/mL
same,GI,Candida albicans [16],30 µg/mL
same,GI,Candida albicans [17],30 µg/mL
same,GI,Cryptococcus neoformans,<=0.3 ug ml-1
same,GI,Staphylococcus aureus [18],6.25 µg/mL
same,GI,Staphylococcus aureus [19],12.5 µg/mL
same,GI,Enterococcus faecalis,3.12 µg/mL
same,GI,Streptococcus pyogenes,<=0.0008 ug ml-1
same,Activity,Candida albicans [20],inactive
same,Activity,Candida albicans [21],75%
same,Activity,Candida albicans [22],70%
same,Activity,Candida albicans [23],50%
same,Activity,Candida albicans [24],37%
same,Activity,Candida albicans [25],60%
same,Activity,Candida albicans [26],25%
same,Activity,Candida albicans [27],30%
same,Activity,Candida albicans [28],25%
NYSTATIN,Activity,Candida albicans [29],0%
same,Activity,Candida albicans [30],10%
